Measured values published in patent US10610538B2, “Pradimicin derivatives for the treatment of diseases caused by kinetoplastids” (KATHOLIEKE UNIVERSITEIT LEUVEN, priority 2013, dated 2020).
Values after ≈ are worked out from the molar mass of the structure shown. Like-named read-outs stand apart in the source and are kept apart here.

How the values were obtained:
[1] = system: T. brucei BSF; test: In vitro growth inhibition of T. brucei bloodstream forms; format: cell-based, Trypanosoma brucei brucei
Procedure: Trypanosoma brucei brucei single-marker bloodstream forms (BSF) (antigenic type 1.2, MITat 1.2, clone 221a) strain 427, harbouring T7 RNA polymerase and the tetracycline repressor (Wirtz et al., 1999) and Trypanosoma brucei rhodesiense EATRO3 ETat1.2 TREU164 (Turner et al., 2004) were used in this study. Bloodstream forms were cultured at 37° C. and 5% CO2 in HMI-9 supplemented with 10% (v/v) or 20% fetal bovine serum, respectively. The non-peptidic CBAs pradimicin A (PRM-A, derived from Actinomadura hibisca) (Oki et al., 1988) and pradimicin S (PRM-S, derived from Actinomadura spinosa strain A A08 51) (Saitoh et al., 1993) were tested for inhibition of parasite growth.

[2] = system: L. donovani promastigotes; test: In vitro activity against L. donovani promastigotes (proliferation, cell counting); format: cell-based, Leishmania donovani MHOM/ET/67HU3; conditions: 48 h
Procedure: (§1) Activity of pradimicin A (PRM-A) and S (PRM-S) was tested against promastigote and amastigote forms of L. donovani MHOM/ET/67HU3.
In the case of the promastigote forms, 2.5×10^4 parasites were incubated in 24-well plates (1 mL) for 48 h at different drug concentrations between 0.391 μg·mL^−1 and 50 μg·mL^−1 in RPMI 1640 modified supplemented with 20% FBS, 2 mM L-glutamine, 100 U·mL^−1 penicillin and 100 μg·mL^−1 of streptomycin. The proliferation was determined by counting the number of cells using a Z1 Coulter counter. EC50 values were calculated by nonlinear regression analysis.

[3] = system: L. donovani amastigotes; test: In vitro activity against intracellular L. donovani amastigotes in mouse peritoneal macrophages; format: cell-based, Leishmania donovani MHOM/ET/67HU3; conditions: 72 h
Procedure: as §1
To determine activity against the amastigote form, 1×10^5 mouse peritoneal macrophages were seeded in 24-well tissue culture chamber slides using RPMI 1640 medium supplemented with 10% HIFBS, 2 mM L-glutamine, 100 U·mL-1 penicillin and 100 μg·mL^−1 streptomycin. Compounds were added and cells were then infected with late-stage promastigotes at a macrophage/parasite ratio of 1:10. After 8 h of infection at 35° C. and 5% CO2, extracellular parasites were removed by washing with serum-free medium, and infected macrophage cultures were incubated with different CBA concentrations for 72 h in RPMI 1640 medium plus 10% HIFBS at 37° C. with 5% CO2. After that, macrophages were fixed with 2.5% p-formaldehyde in PBS for 30 min at 4° C., permeabilized with 0.1% Triton X-100 in PBS for 30 min, and incubated with Gold antifade reagent plus DAPI in order to detect the intracellular parasites. Drug activity was determined from the percentage of infected cells and from the number of amastigotes per cell in drug-treated versus non-treated cultures.

[4] = system: Macrophages; test: Toxicity in macrophages; format: cell-based, mouse
[5] = system: T. cruzi epimastigotes; test: In vitro activity against T. cruzi epimastigotes (resazurin viability); format: cell-based, Trypanosoma cruzi Tulahuen strain C4; conditions: 3 days
Procedure: (§2) Activity of pradimicin A (PRM-A) and S (PRM-S) against T. cruzi was studied in epimastigote and trypomastigote forms of T. cruzi Tulahuen strain C4.
(§3) In the case of epimastigote forms, 2×10^5 parasites were seeded in a 96-wells plate (100 μL) and incubated 3 days with different drug concentrations between 0.0625 μg·mL^−1 and 100 μg·mL^−1 in liver infusion tryptose (LIT) medium supplemented with 10% fetal calf serum at 28° C. In the case of trypomastigotes, 1×10^5 parasites were seeded in a 96-well plate (100 μL) and incubated with different drug concentrations between 0.006 μg·mL^−1 and 12.5 μg·mL^−1 for 24 h in RPMI 1640 medium supplemented with 10% FBS, 2 mM L-glutamine, 100 U·mL^−1 penicillin and 100 μg·mL^−1 streptomycin at 37° C. and 5% CO2. Cell viability of epimastigotes and lysis percentage of trypomastigotes were determined by adding 10 μL of resazurin (0.11 mg·mL^−1 in PBS) and measuring fluorescence at 570/590 nm of excitation/emission wavelength after 2 h of incubation using a Spectramax Gemini EM microplate fluorometer (Molecular Devices Cooperation, Sunnyvale, Calif., USA). EC50 or 50% lysis values were defined as the drug concentration required for half-maximal inhibition of the cellular growth rate or half-maximal lysis and were calculated by nonlinear regression analysis.

[6] = system: T. cruzi trypomastigotes; test: Lysis of T. cruzi trypomastigotes (resazurin); format: cell-based, Trypanosoma cruzi Tulahuen strain C4; conditions: 24 h, half-maximal lysis
Procedure: as §2, §3

[7] = system: T. b. rhodesiense EATRO3; test: In vivo activity of PRM-S in BALB/c mice infected with T. b. rhodesiense EATRO3; conditions: for MRD (mean relapse day) / MSD (mean survival day) / cured/infected: BALB/c; for cured/infected: from day 3 post-infection
Source text: (§4) In order to establish the trypanocidal capacity of PRM-S, C57BL/6J or BALB/c mice were infected with T. b. brucei 427 or T. b. rhodesiense EATRO3 strains, respectively, and infection was allowed to proceed for 3 days before treatment with PRM-S, one dosage per day for 4 days.
(§5) Female C57BL/6 or BALB/c mice (Jackson Laboratories, Bar Harbor, Me.) were split in groups containing between three and six mice (6-8 weeks old), and infected via intraperitoneal route with 5×10^3 (T. b. brucei strain 427) or 1×10^4 (T. b. rhodesiense EATRO3) trypanosomes, respectively. Different dosages of PRM-S ([…] and 50 mg·kg^−1) were administered once/day intraperitoneally (200 μL) for 4 days starting on the third day post-infection, in 0.5% w/v hydroxypropylmethylcellulose (HPMC), 0.4% v/v Tween 80 and 0.5% v/v benzyl alcohol used as dosage formulation. One group of mice in each case was also infected and treated with the vehicle as control, Parasitaemia was monitored daily in a haematocytometer under a microscope from the third day post-infection and after tail blood extraction.

[8] = system: T. b. brucei 427; test: In vivo activity of PRM-S in C57BL/6J mice infected with T. b. brucei 427; conditions: for MRD (mean relapse day) / MSD (mean survival day) / cured/infected: C57BL/6J; for cured/infected: from day 3 post-infection
Source text: as §4, §5

[9] = read-out: EC50 (% Lysis) T. cruzi
[10] = 4 × 25 mg·kg^−1 i.p., listed as PRMS
[11] = 4 × 50 mg·kg^−1 i.p., listed as PRMS

| Compound | EC50 [1] [µM] | EC50 (μg · mL^−1) [1] [µg/mL] | EC50 [2] [µM] | EC50 (μg · mL^−1) [2] [µg/mL] | EC50 [3] [nM] | EC50 (μg · mL^−1) [3] [µg/mL] | EC50 [4] [µM] | EC50 (μg · mL^−1) [4] [µg/mL] | EC50 [5] [µM] | EC50 (μg · mL^−1) [5] [µg/mL] | EC50 (% Lysis) T. cruzi [6] [µg/mL] | EC50 [6, 9] [nM] | further results |
| --- | --- | --- | --- | --- | --- | --- | --- | --- | --- | --- | --- | --- | --- |
| CN[C@@H]1[C@H](O[C@@H]2OC[C@@H](O)[C@H](O)[C@H]2O)[C@@H](O)[C@H](O[C@H]2c3cc(C)c(C(=O)N[C@H](C)C(=O)O)c(O)c3-c3c(cc4c(c3O)C(=O)c3cc(OC)cc(O)c3C4=O)[C@@H]2O)O[C@@H]1C [PRM-A, pradimicin A] | 3.8 ± 0.05 | 3.20 ± 0.04 (≈ 3.81 µM) | 21.4 ± 0.8 | 18.0 ± 0.7 (≈ 21.4 µM) | 800 ± 100 | 0.7 ± 0.1 (≈ 0.833 µM) | > 100 | >100 | 28.1 ± 1.3 | 23.6 ± 1.1 (≈ 28.1 µM) | 1.0 ± 0.3 (≈ 1.19 µM) | 1200 ± 300 |  |
| CN[C@@H]1[C@H](O[C@@H]2O[C@H](CO)[C@@H](O)[C@H](OS(=O)(=O)O)[C@H]2O)[C@@H](O)[C@H](O[C@H]2c3cc(C)c(C(=O)N[C@H](C)C(=O)O)c(O)c3-c3c(cc4c(c3O)C(=O)c3cc(OC)cc(O)c3C4=O)[C@@H]2O)O[C@@H]1C [PRM-S, pradimicin S] | 6.44 ± 0.08 | 5.85 ± 0.08 (≈ 6.15 µM) | 22.9 ± 1.9 | 21.8 ± 1.9 (≈ 22.9 µM) | 2300 ± 300 | 2.2 ± 0.2 (≈ 2.31 µM) | > 100 | >100 | 19 ± 2.6 | 17.3 ± 2.4 (≈ 18.2 µM) | 1.2 ± 0.3 (≈ 1.26 µM) | 1400 ± 300 | mice in which parasitaemia appeared subsequently (relapse) ([7]; 25 mg·kg^−1): three of the five mice; MRD (mean relapse day) ([7]; 4 × 25 mg·kg^−1 i.p.): 10.7 ± 0.6 days; MSD (mean survival day) ([7]; 4 × 25 mg·kg^−1 i.p.): 44.4 ± 41.7 days; MRD (mean relapse day) [7, 10]: 10.7 ± 0.6 days; MSD (mean survival day) [7, 10]: 44.4 ± 41.7 days; cured/infected ([7]; 4 × 25 mg·kg^−1 i.p.): 2/5; MSD (mean survival day) ([7]; 4 × 50 mg·kg^−1 i.p.): > 90 days; MSD (mean survival day) [7, 11]: >90 days; cured/infected ([7]; 4 × 50 mg·kg^−1 i.p.): 5/5; parasitaemia ([7]; both dosages (25 and 50 mg·kg^−1), after the first administration): drastically reduced; MRD (mean relapse day) ([8]; 4 × 25 mg·kg^−1 i.p.): 10.7 ± 0.6 days; MSD (mean survival day) ([8]; 4 × 25 mg·kg^−1 i.p.): 18.0 ± 7 days; MRD (mean relapse day) [8, 10]: 10.7 ± 0.6 days; MSD (mean survival day) [8, 10]: 18.0 ± 7 days; cured/infected ([8]; 4 × 25 mg·kg^−1 i.p.): 0/3; MSD (mean survival day) ([8]; 4 × 50 mg·kg^−1 i.p.): > 90 days; MSD (mean survival day) [8, 11]: >90 days; cured/infected ([8]; 4 × 50 mg·kg^−1 i.p.): 6/6; parasitaemia ([8]; after the first dose of 50 mg·kg^−1): dramatic decrease of parasitaemia; parasitaemia ([8]; after the third dose of 25 mg·kg^−1): dramatic decrease of parasitaemia |
| O=C(Cn1ccnc1[N+](=O)[O-])NCc1ccccc1 [Benznidazole, reference compound] |  |  |  |  |  |  |  |  |  |  |  |  | EC50 ([6]; Trypanosoma cruzi, read-out: EC50 (% Lysis) T. cruzi): 5200 ± 200 nM; EC50 ([6]; Trypanosoma cruzi, read-out: EC50 (% Lysis) T. cruzi (μg · mL^−1)): 1.35 ± 0.05 µg/mL |
| CN[C@@H]1[C@H](O[C@@H]2O[C@H](CO)[C@@H](O)[C@H](OS(=O)(=O)O)[C@H]2O)[C@@H](O)[C@H](O[C@@H]2c3cc(C)c(C(=O)N[C@H](CO)C(=O)O)c(O)c3-c3c(cc4c(c3O)C(=O)c3cc(OC)cc(O)c3C4=O)[C@H]2O)O[C@@H]1C [PRM-FS, Pradimicin-FS] | 13.5 ± 0.8 | 13.0 ± 0.7 (≈ 13.4 µM) | 50.8 ± 2.1 | 49.1 ± 2.0 (≈ 50.8 µM) |  |  |  |  |  |  |  |  |  |
